Series [1] concerns E. coli DH5αZ1 expressing TetX7 or Tet50 from pZE24 plasmid. The following applies: E. coli expressing TetX7 and Tet50; cited from earlier work.
The subject of another series is P. aeruginosa PA 27853. In words: Checkerboard FICI, P. aeruginosa PA 27853. It counts as cell-based.
Another series has as its target TetX7 (Pseudomonas aeruginosa, UniProt Q7X2A0). In words: Apparent steady-state kinetics of NADPH consumption. It counts as biochemical. To be noted: increasing inhibitor concentration, A340.
In series [2] the test system is E. coli DH5αZ1+pZE24-Tet50. In words: Checkerboard FICI, E. coli DH5αZ1+pZE24-Tet50. It counts as cell-based. The following applies: combination with Tetracycline.
A further series deals with E. coli DH5αZ1. As to the kind of experiment: Checkerboard FICI, E. coli DH5αZ1. It counts as cell-based.
The subject of the next series is M. smegmatis mc^2155. In words: Checkerboard FICI, M. smegmatis mc^2155 expressing TetX-HA. The format is cell-based. The following applies: combination with Tetracycline.
The next series has as its system E. coli DH5αZ1+pZE24. As to the kind of experiment: Checkerboard FICI, E. coli DH5αZ1+pZE24. The format is cell-based. To be noted: combination with Tetracycline; E. coli DH5αZ1+pZE24 (empty vector).
The subject of the next series is P. aeruginosa Pa-3. In words: Checkerboard FICI, P. aeruginosa Pa-3. It counts as cell-based.
For series [3], the system named is E. coli DH5αZ1 expressing TetX7 or Tet50 from pZE24 plasmid. As to the kind of experiment: MIC by microbroth dilution, inhibitor alone or with fixed 8 μg/mL TC. It counts as cell-based. The following applies: fixed TC concentration of 8 μg/mL; inhibitor concentration needed to rescue TC activity. A general note: Broth dilution looks for growth in wells or tubes with falling amounts of substance.

The subject of series [4] is E. coli DH5αZ1+pZE24-TetX7. As to the kind of experiment: Checkerboard FICI, E. coli DH5αZ1+pZE24-TetX7. The format is cell-based. To be noted: combination with Tetracycline.
In the next series the target is T1, Tet50 (Unknown prokaryotic organism, UniProt A0A059WYP6).
T1 sequence (A0A059WYP6 1-388): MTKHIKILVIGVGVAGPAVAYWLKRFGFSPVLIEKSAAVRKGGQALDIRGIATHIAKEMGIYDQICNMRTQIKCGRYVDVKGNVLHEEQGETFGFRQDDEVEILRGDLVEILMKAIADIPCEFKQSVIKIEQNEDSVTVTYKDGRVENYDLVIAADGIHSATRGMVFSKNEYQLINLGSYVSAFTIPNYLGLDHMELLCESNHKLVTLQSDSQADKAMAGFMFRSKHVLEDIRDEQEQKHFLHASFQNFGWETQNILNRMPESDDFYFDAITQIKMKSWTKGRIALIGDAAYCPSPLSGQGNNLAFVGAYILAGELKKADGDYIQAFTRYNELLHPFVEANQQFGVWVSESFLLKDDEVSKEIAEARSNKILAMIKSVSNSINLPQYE
To be noted: Tet(50); cited from earlier work.

For a further series, the system named is human red blood cells. It counts as cell-based. The following applies: concentrations up to 500 μM (~250 μg/mL); 1 hour at 37 °C.
The format of series [5] is in vitro ADME. The following applies: E. coli cell lysate, 37 °C; LC-MS (A405 for acetate control).
Where [6] appears, read: combination with Tetracycline, P. aeruginosa PA 27853.
The mark [7] stands for this setting: combination with Tetracycline, P. aeruginosa PA 27853 (control lacking TetX7).
Where [8] appears, read: combination with Tigecycline, P. aeruginosa PA 27853.

We go through five compounds from publication PMC11915366 (ACS infectious diseases, 2025).

TetX7, sequence (Q7X2A0 1-378): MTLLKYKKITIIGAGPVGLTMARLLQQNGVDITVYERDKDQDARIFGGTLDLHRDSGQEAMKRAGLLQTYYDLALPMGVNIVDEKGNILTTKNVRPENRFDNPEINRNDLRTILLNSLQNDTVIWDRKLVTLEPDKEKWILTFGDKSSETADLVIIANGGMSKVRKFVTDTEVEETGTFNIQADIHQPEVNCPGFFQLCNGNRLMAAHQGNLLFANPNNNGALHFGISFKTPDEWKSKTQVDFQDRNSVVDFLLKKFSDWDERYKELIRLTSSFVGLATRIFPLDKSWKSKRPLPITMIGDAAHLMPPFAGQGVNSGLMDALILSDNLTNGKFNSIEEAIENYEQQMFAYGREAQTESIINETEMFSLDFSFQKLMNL

Consider `CN(C)[C@@H]1C(O)=C(C(N)=O)C(=O)[C@@]2(O)C(O)=C3C(=O)c4c(O)cccc4[C@@](C)(O)[C@H]3C[C@@H]12` [TC, tetracycline], for which the “MIC of TC” value in [1] was more than 8 µg/mL.
Consider `Cc1c2c(c(O)c3c(OC(=O)c4cccnc4)cccc13)C(=O)[C@]1(O)C(=O)C(C(N)=O)=C(O)[C@@H](N(C)C)[C@@H]1C2` [Inhibitor 8], for which the Effect result with P. aeruginosa PA 27853 (setting [6]) was “Indifferent”; with P. aeruginosa PA 27853 (setting [8]), “Indifferent”; in [2], “Synergetic”; with E. coli DH5αZ1 (combination with Tetracycline), “Indifferent”; in the series with E. coli DH5αZ1 (combination with Tigecycline), “Indifferent”; with M. smegmatis mc^2155, “Additive/Indifferent”. Also, the Effect result is “Indifferent” in the series on E. coli DH5αZ1+pZE24, “Indifferent” in the series with P. aeruginosa Pa-3 (combination with Tetracycline), “Additive” in the series with P. aeruginosa Pa-3 (combination with Tigecycline) and “Synergetic” in series [4]. The FICI in the series with P. aeruginosa PA 27853 (setting [7]) is more than 1; with P. aeruginosa PA 27853 (setting [8]) it was more than 1; in series [2], 0.265; in the series on E. coli DH5αZ1 (combination with Tetracycline), more than 1; with E. coli DH5αZ1 (combination with Tigecycline), more than 1; in the series with M. smegmatis mc^2155, 0.75–1. For the same compound, the results for the FICI (in the series on E. coli DH5αZ1+pZE24; in series [4]) were 1 and 0.375, respectively. Also, the “Vmax of NADPH consumption” value at TetX7 worked out at 0.05 ± 0.02 min⁻¹. The “MIC of inhibitor combined with TC” value in series [3] amounted to 4 µg/mL.
For `Cc1c2c(c(O)c3c(OC(=O)c4ccccn4)cccc13)C(=O)[C@]1(O)C(=O)C(C(N)=O)=C(O)[C@@H](N(C)C)[C@@H]1C2` [Inhibitor 7], the Effect entry with P. aeruginosa PA 27853 (setting [6]) is “Indifferent”; in the series with P. aeruginosa PA 27853 (setting [8]), “Indifferent”; in series [2] it was “Additive”; in the series with E. coli DH5αZ1 (combination with Tetracycline), “Additive”; in the series with E. coli DH5αZ1 (combination with Tigecycline) it was “Indifferent”; with M. smegmatis mc^2155, “Additive/Indifferent”. The Effect entry in the series on E. coli DH5αZ1+pZE24 is recorded as “Indifferent”; in the series on P. aeruginosa Pa-3 (combination with Tetracycline), “Indifferent”; with P. aeruginosa Pa-3 (combination with Tigecycline) it was “Synergetic”; in [4], “Additive”. Besides, the FICI in the series on P. aeruginosa PA 27853 (setting [7]) is more than 1; in the series on P. aeruginosa PA 27853 (setting [8]) it was more than 1; in series [2], 0.625; in the series with E. coli DH5αZ1 (combination with Tigecycline), more than 1; in the series with M. smegmatis mc^2155, 0.75–1; with E. coli DH5αZ1+pZE24, 1.125. The FICI in [4] turned out to be 0.625. In addition, in series [3], the “MIC of inhibitor combined with TC” value was 2 µg/mL.
As to `Cc1c2c(c(O)c3c(O)cccc13)C(=O)[C@]1(O)C(=O)C(C(N)=O)=C(O)[C@@H](N(C)C)[C@@H]1C2` [aTC, anhydrotetracycline, reference compound], the Effect entry with P. aeruginosa PA 27853 (setting [6]) is reported as “Additive”; in the series on P. aeruginosa PA 27853 (setting [8]), “Additive”; in the series on E. coli DH5αZ1 (combination with Tetracycline), “Indifferent”; in the series on E. coli DH5αZ1 (combination with Tigecycline), “Indifferent”; in the series with M. smegmatis mc^2155, “Indifferent”; in the series on P. aeruginosa Pa-3 (combination with Tetracycline), “Synergetic”. In the series on P. aeruginosa Pa-3 (combination with Tigecycline), the Effect entry was “Synergetic”. In addition, the “Kapp of NADPH consumption” value on Tet50 was 2.0 ± 0.3 µM. Also, the FICI is given as more than 1 in the series on E. coli DH5αZ1 (combination with Tetracycline), more than 1 in the series with E. coli DH5αZ1 (combination with Tigecycline) and 1 in the series with M. smegmatis mc^2155. Besides, in the series on human red blood cells, the Hemolysis entry is “No hemolysis”.
As for `CC(=O)Oc1ccc([N+](=O)[O-])cc1` [p-NO2-phenyl acetate], in [5], the “Stability toward hydrolysis in cell lysate” value was “time- and lysate-dependent increase in A405”.
